The values that follow come from patent US7078195B2, “Antibiotics AA-896” (Wyeth Holdings Corporation, priority 2001, dated 2006).

Test in all cases: Broth dilution MIC
Assay type in all cases: cell-based
Holding throughout (conditions): Mueller-Hinton broth, 18 hours at 35° C.

One experiment concerns CNS GC 4537. The procedure: (§1) The in vitro antibacterial activity of AA-896-A1, AA-896-A2, AA-896-A3, AA-896-A4, AA-896-A5, AA-896-B1, AA-896-B2, AA-896-B3, AA-896-B4, AA-896-B5, AA-896-B6, AA-896-B7, AA-896-C1, AA-896-C2, AA-896-C3, AA-896-C4, AA-896-D1, AA896-D2 and AA-896-D3 is determined against a spectrum of Gram-positive and Gram-negative bacteria by a standard broth dilution method. Serial dilution of the compounds are made in Mueller-Hinton broth and inoculated with a bacterial suspension. The lowest concentration of compound that inhibited the growth of a bacterial strain after 18 hours of incubation at 35° C. is reported as the minimal inhibitory concentration (MIC) for that strain.

A further experiment has as its system CNS GC 4538. The procedure:
as §1

For the next experiment, the system named is CNS GC 4547. As to the method:
as §1

The subject of another experiment is E. cloacae GC 3783. The procedure:
as §1

In another experiment the test system is E. coli GC 2203. As to the method: as §1
The next experiment concerns E. coli GC 3226. As to the method:
as §1

The subject of the next experiment is E. coli GC 4559. The procedure:
as §1

In a further experiment the test system is E. coli GC 4560. The procedure:
as §1

Another experiment relates to E. faecalis GC 2242. The procedure: as §1
For another experiment, the system named is E. faecalis GC 4555. As to the method: as §1
A further experiment has as its system E. faecalis GC 842. The procedure: as §1
For a further experiment, the system named is K. pneumoniae GC 4534. The procedure: as §1
A further experiment deals with M. morganii GC 4531. As to the method: as §1
A further experiment concerns P. aeruginosa GC 2214. As to the method:
as §1

The next experiment relates to P. aeruginosa GC 4532. The procedure: as §1
In another experiment the test system is P. rettgeri GC 4530. As to the method: as §1
For the next experiment, the system named is S. aureus GC 1131. The procedure: as §1
The next experiment deals with S. aureus GC 2216. The procedure:
as §1

In a further experiment the test system is S. aureus GC 4536. As to the method:
as §1

A further experiment has as its system S. marcescens GC 4077. The procedure: as §1
For another experiment, the system named is E. faecalis GC 242. The procedure: as §1

Some results are limits rather than exact numbers.

Consider `CC(C)CC(NC(=O)C(NC(=O)NC(C(=O)O)C(C)C)C1CCNC(=N)N1)C(=O)NCCCNC(C(=O)O)C(OC1CC(O)C(CN)O1)C1OC(n2ccc(=O)[nH]c2=O)C(O)C1O` [AA-896-D3, 5-O-[5-Amino-2,5-dideoxy-β-D-ribofuranosyl]-6-[[3-[2-[2-[[(1-carboxy-2-methylpropyl)-carbamoyl]amino]-2-(hexahydro-2-iminopyrimidin-4-yl)acetamido]-4-methylpentanamido]-propyl]amino]-1,6-dideoxy-1-(3,4-dihydro-2,4-dioxopyrimidin-1(2H)-yl)-β-D-heptofuran-uronic acid], for which the “Antimicrobial Activity (MIC)” value in the experiment on CNS GC 4537 was >32 µg/mL; with CNS GC 4538 it was >32 µg/mL; in the experiment with CNS GC 4547, >32 µg/mL; in the experiment with E. cloacae GC 3783, >32 µg/mL; with E. coli GC 2203, 32 µg/mL; in the experiment with E. coli GC 3226, 32 µg/mL. The “Antimicrobial Activity (MIC)” value with E. coli GC 4559 is >32 µg/mL; in the experiment on E. coli GC 4560 it was 0.25 µg/mL; in the experiment on E. faecalis GC 2242, >32 µg/mL; with E. faecalis GC 4555 it was >32 µg/mL; with E. faecalis GC 842 it was >32 µg/mL; with K. pneumoniae GC 4534 it was >32 µg/mL. Further, the “Antimicrobial Activity (MIC)” value was >32 µg/mL in the experiment on M. morganii GC 4531; 32 µg/mL in the experiment with P. aeruginosa GC 2214; >32 µg/mL with P. aeruginosa GC 4532; >32 µg/mL in the experiment on P. rettgeri GC 4530; >32 µg/mL in the experiment with S. aureus GC 1131; >32 µg/mL in the experiment on S. aureus GC 2216. Besides, the “Antimicrobial Activity (MIC)” value in the experiment with S. aureus GC 4536 and in the experiment on S. marcescens GC 4077 was >32 µg/mL in each case.
`COC1C(OC(C(NCCCNC(=O)C(NC(=O)C(NC(=O)NC(C(=O)O)C(C)C)C2CCNC(=N)N2)C(OC(=O)CCCCC(C)C)C(C)C)C(=O)O)C2OC(n3ccc(=O)[nH]c3=O)C(O)C2O)OC(CN)C1O` [AA-896-B6, 5-O-[5-Amino-5-deoxy-2-O-methyl-β-D-ribofuranosyl]-6-[[3-[2-[2-[[(1-carboxy-2-methyl-propyl)carbamoyl]amino]-2-(hexahydro-2-iminopyrimidin-4-yl)acetamido]-4-methyl-3-[(6-methylheptanoyl)oxy]pentanamido]propyl]amino]-1,6-dideoxy-1-(3,4-dihydro-2,4-dioxopyrimidin-1(2H)-yl)-β-D-heptofuranuronic acid]: the “Antimicrobial Activity (MIC)” value with CNS GC 4537 is >64 µg/mL; in the experiment with CNS GC 4538 it was 64 µg/mL; in the experiment on CNS GC 4547 it was >64 µg/mL; in the experiment on E. cloacae GC 3783 it was 8 µg/mL; with E. coli GC 2203, 64 µg/mL; in the experiment with E. coli GC 3226, 64 µg/mL. The “Antimicrobial Activity (MIC)” value with E. coli GC 4559 was 32 µg/mL; in the experiment with E. coli GC 4560, “<=0.06 μg/ml”; with E. faecalis GC 2242 it was >64 µg/mL; in the experiment with E. faecalis GC 4555 it was >64 µg/mL; in the experiment with E. faecalis GC 842 it was >64 µg/mL; in the experiment on K. pneumoniae GC 4534, 32 µg/mL. The “Antimicrobial Activity (MIC)” value with M. morganii GC 4531 is >64 µg/mL; in the experiment on P. aeruginosa GC 2214, 64 µg/mL; with P. aeruginosa GC 4532 it was >64 µg/mL; in the experiment with P. rettgeri GC 4530, >64 µg/mL; in the experiment on S. aureus GC 1131, >64 µg/mL; in the experiment on S. aureus GC 2216, >64 µg/mL. Also, the “Antimicrobial Activity (MIC)” value with S. aureus GC 4536 and in the experiment with S. marcescens GC 4077 was >64 µg/mL in each case.
In the case of “5-O-[5-Amino-5-deoxy-β-D-ribofuranosyl]-6-[[3-[3-[[13-(carbamimidoylhydroxyamino)-tridecanoyl]oxy]-2-[2-[[(1-carboxy-2-methylpropyl)carbamoyl]amino]-2-(hexahydro-2-iminopyrimidin-4-yl)acetamido]-4-methylpentanamido]propyl]amino]-1,6-dideoxy-1-(3,4-dihydro-2,4-dioxopyrimidin-1(2H)-yl)-β-D-heptofuranuronic acid [AA-896-A4]”, the “Antimicrobial Activity (MIC)” value in the experiment on CNS GC 4537 was 4 µg/mL; in the experiment with CNS GC 4538 it was 2 µg/mL; with CNS GC 4547, 8 µg/mL; in the experiment with E. cloacae GC 3783, 1 µg/mL; with E. coli GC 2203 it was 16 µg/mL; in the experiment with E. coli GC 3226, 8 µg/mL. In addition, the “Antimicrobial Activity (MIC)” value was 32 µg/mL with E. coli GC 4559; 0.12 µg/mL with E. coli GC 4560; 32 µg/mL in the experiment on E. faecalis GC 242; 32 µg/mL in the experiment on E. faecalis GC 4555; 32 µg/mL in the experiment on E. faecalis GC 842; >32 µg/mL in the experiment with K. pneumoniae GC 4534. Besides, the “Antimicrobial Activity (MIC)” value in the experiment on M. morganii GC 4531 is >32 µg/mL; in the experiment on P. aeruginosa GC 2214, 32 µg/mL; with P. aeruginosa GC 4532, 32 µg/mL; in the experiment on P. rettgeri GC 4530, >32 µg/mL; in the experiment on S. aureus GC 1131 it was 8 µg/mL; in the experiment on S. aureus GC 2216 it was 4 µg/mL. Besides, the entries for the “Antimicrobial Activity (MIC)” value with S. aureus GC 4536 and in the experiment on S. marcescens GC 4077 were 8 µg/mL and >32 µg/mL, respectively.
Regarding `COC1C(OC(C(NCCCNC(=O)C(NC(=O)C(NC(=O)NC(C(=O)O)C(C)C)C2CCNC(=N)N2)C(OC(=O)CCCCCC(C)C)C(C)C)C(=O)O)C2OC(n3ccc(=O)[nH]c3=O)C(O)C2O)OC(CN)C1O` [AA-896-B4, 5-O-[5-Amino-5-deoxy-2-O-methyl-β-D-ribofuranosyl]-6-[[3-[2-[2-[[(1-carboxy-2-methyl-propyl)carbamoyl]amino]-2-(hexahydro-2-iminopyrimidin-4-yl)acetamido]-4-methyl-3-[(7-methyloctanoyl)oxy]pentanamido]propyl]amino]-1,6-dideoxy-1-(3,4-dihydro-2,4-dioxopyrimidin-1(2H)-yl)-β-D-heptofuranuronic acid], the “Antimicrobial Activity (MIC)” value was 64 µg/mL in the experiment on CNS GC 4537; 32 µg/mL in the experiment with CNS GC 4538; >64 µg/mL in the experiment with CNS GC 4547; 8 µg/mL in the experiment with E. cloacae GC 3783; 32 µg/mL in the experiment on E. coli GC 2203; 64 µg/mL with E. coli GC 3226. The “Antimicrobial Activity (MIC)” value is 8 µg/mL with E. coli GC 4559; “<=0.06 μg/ml” with E. coli GC 4560; >64 µg/mL in the experiment on E. faecalis GC 242; 64 µg/mL in the experiment on E. faecalis GC 4555; >64 µg/mL in the experiment on E. faecalis GC 842; 16 µg/mL with K. pneumoniae GC 4534. The “Antimicrobial Activity (MIC)” value was >64 µg/mL with M. morganii GC 4531; 32 µg/mL with P. aeruginosa GC 2214; 64 µg/mL in the experiment with P. aeruginosa GC 4532; >64 µg/mL in the experiment with P. rettgeri GC 4530; 64 µg/mL with S. aureus GC 1131; 64 µg/mL in the experiment with S. aureus GC 2216. The “Antimicrobial Activity (MIC)” value was 64 µg/mL with S. aureus GC 4536 and >64 µg/mL with S. marcescens GC 4077.
